Measured values published in ChEMBL document CHEMBL5726262, “BET protein-inhibiting 5-aryltriazoleazepines” (2017).

Target: Bromodomain-containing protein 4 (Homo sapiens, UniProt O60885)
Assay: Time-Resolved Fluorescence Resonance energy Transfer (TR-FRET) Assay: For this purpose, a time-resolved fluorescence resonance energy transfer (TR-FRET) assay was used, which measures the binding between N-terminally His6-tagged BRD4(1) (amino acids 44-168) and a synthetic acetylated histone H4 (Ac-H4) peptide with sequence GRGK(Ac)GGK(Ac)GLGK(Ac)GGAK(Ac)RHGSGSK-biotin. The recombinant BRD4 protein produced in-house according to Filippakopoulos et al., Cell, 2012, 149:214-231 was expressed in E. coli and purified by means of (Ni-NTA) affinity and (Sephadex G-75) size exclusion chromatography. The Ac-H4 peptide can be purchased, for example, from Biosyntan (Berlin, Germany).In the assay, typically 11 different concentrations of each substance (0.1 nM, 0.33 nM, 1.1 nM, 3.8 nM, 13 nM, 44 nM, 0.15 μM, 0.51 μM, 1.7 μM, 5.9 μM and 20 μM) were analysed as duplicates on the same microtitre plate. For this purpose, 100-fold concentrated solutions in DMSO were prepared by serial dilutions (1:3.4) of a 2 mM stock solution into a clear, 384-well microtitre plate (Greiner Bio-One, Frickenhausen, Germany). From this, 50 nl were transferred into a black test plate (Greiner Bio-One, Frickenhausen, Germany). […]

**Q.** Which IC50 does the source give for `Cc1nnc2n1-c1ccc(OC(F)(F)F)cc1C(c1ccc(Cl)cc1)=C[C@H]2CC(=O)N1CC2(COC2)C1` here?
**A.** 220 nM
